{
  "source": "paper PMC5785474",
  "about": "“Application of Sustainable Natural Resources in Agriculture: Acaricidal and Enzyme Inhibitory Activities of Naphthoquinones and Their Analogs against Psoroptes cuniculi” (Scientific Reports, 2018)",
  "molecular_target": "acetylcholinesterase (AChE)",
  "assay": "AChE activity in crude mite homogenate supernatant, acetylthiocholine/DTNB assay at […] nm",
  "assay_type": "biochemical, Psoroptes cuniculi",
  "data": [
    {"compound": "CC1=CC(=O)c2c(O)cccc2C1=O", "note": "[compound 2, Plumbagin]", "values": [
      {"measurement": "IC50 (ppm)", "value": 29.87, "unit": "ppm"}
    ]},
    {"compound": "O=C1C=CC(=O)c2c(O)cccc21", "note": "[compound 1, Juglone]", "values": [
      {"measurement": "IC50 (ppm)", "value": 14.81, "unit": "ppm"}
    ]}
  ]
}
